From patent US7118895B2, “Process for producing aglycon by using diglycosidase and flavor-improved food containing the aglycon and converting agent to be used in the process” (Amano Enzyme Inc., priority 2000, dated 2006)

System: Crude diglycosidase
Experiment: Examination of substrate concentration in the conversion into isoflavone aglycons by diglycosidase using soybean materials;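 on Decomposition efficiency: ratio of each glycoside/aglycon within its isoflavone family: percent of the isoflavone family total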
Type: biochemical, Penicillium multicolor IAM7153
Outline: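 Reaction at 55° C, shaken, pH 4.0 (20 mM acetate), using crude diglycosidase from a 1.88 AU/mL enzyme solution on soy flour, soymilk, defatted soybean or soy protein concentrate at 2, 5, 10, 20 or 30% (w/v). Isoflavone aglycons quantified by HPLC of ethanol extracts at 0, 1, 3, 6 h.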

Decomposition efficiency: ratio of each glycoside/aglycon within its isoflavone family (roasted soy flour, substrate concentration 10%, heat treatment of enzyme no, reaction time 3 h): not detected | Decomposition efficiency: ratio of each glycoside/aglycon within its isoflavone family (roasted soy flour, substrate concentration 10%, heat treatment of enzyme no, reaction time 6 h): not detected | Decomposition efficiency: ratio of each glycoside/aglycon within its isoflavone family (roasted soy flour, substrate concentration 10%, heat treatment of enzyme yes, reaction time 6 h): not detected | Decomposition efficiency: ratio of each glycoside/aglycon within its isoflavone family (roasted soy flour, substrate concentration 20%, heat treatment of enzyme no, reaction time 0 h): not detected | Decomposition efficiency: ratio of each glycoside/aglycon within its isoflavone family (roasted soy flour, substrate concentration 20%, heat treatment of enzyme no, reaction time 1 h): not detected | Decomposition efficiency: ratio of each glycoside/aglycon within its isoflavone family (roasted soy flour, substrate concentration 20%, heat treatment of enzyme no, reaction time 3 h): not detected | Decomposition efficiency: ratio of each glycoside/aglycon within its isoflavone family (roasted soy flour, substrate concentration 20%, heat treatment of enzyme no, reaction time 6 h): not detected | Decomposition efficiency: ratio of each glycoside/aglycon within its isoflavone family (roasted soy flour, substrate concentration 20%, heat treatment of enzyme yes, reaction time 6 h): not detected | Decomposition efficiency: ratio of each glycoside/aglycon within its isoflavone family (roasted soy flour, substrate concentration 30%, heat treatment of enzyme no, reaction time 0 h): not detected | Decomposition efficiency: ratio of each glycoside/aglycon within its isoflavone family (roasted soy flour, substrate concentration 30%, heat treatment of enzyme no, reaction time 1 h): not detected | Decomposition efficiency: ratio of each glycoside/aglycon within its isoflavone family (roasted soy flour, substrate concentration 30%, heat treatment of enzyme no, reaction time 3 h): not detected | Decomposition efficiency: ratio of each glycoside/aglycon within its isoflavone family (roasted soy flour, substrate concentration 30%, heat treatment of enzyme no, reaction time 6 h): not detected | Decomposition efficiency: ratio of each glycoside/aglycon within its isoflavone family (roasted soy flour, substrate concentration 30%, heat treatment of enzyme yes, reaction time 6 h): not detected | Decomposition efficiency: ratio of each glycoside/aglycon within its isoflavone family (soymilk, substrate concentration 2%, heat treatment of enzyme no, reaction time 0 h): 35.0% | Decomposition efficiency: ratio of each glycoside/aglycon within its isoflavone family (soymilk, substrate concentration 2%, heat treatment of enzyme no, reaction time 1 h): 15.3% | Decomposition efficiency: ratio of each glycoside/aglycon within its isoflavone family (soymilk, substrate concentration 2%, heat treatment of enzyme no, reaction time 3 h): 3.5% | Decomposition efficiency: ratio of each glycoside/aglycon within its isoflavone family (soymilk, substrate concentration 2%, heat treatment of enzyme no, reaction time 6 h): 0.0% | Decomposition efficiency: ratio of each glycoside/aglycon within its isoflavone family (soymilk, substrate concentration 2%, heat treatment of enzyme yes, reaction time 6 h): 49.5% | Decomposition efficiency: ratio of each glycoside/aglycon within its isoflavone family (soymilk, substrate concentration 5%, heat treatment of enzyme no, reaction time 0 h): 58.2% | Decomposition efficiency: ratio of each glycoside/aglycon within its isoflavone family (soymilk, substrate concentration 5%, heat treatment of enzyme no, reaction time 1 h): 24.9% | Decomposition efficiency: ratio of each glycoside/aglycon within its isoflavone family (soymilk, substrate concentration 5%, heat treatment of enzyme no, reaction time 3 h): 6.9% | Decomposition efficiency: ratio of each glycoside/aglycon within its isoflavone family (soymilk, substrate concentration 5%, heat treatment of enzyme no, reaction time 6 h): 2.1% | Decomposition efficiency: ratio of each glycoside/aglycon within its isoflavone family (soymilk, substrate concentration 5%, heat treatment of enzyme yes, reaction time 6 h): 52.5% | Decomposition efficiency: ratio of each glycoside/aglycon within its isoflavone family (soymilk, substrate concentration 10%, heat treatment of enzyme no, reaction time 0 h): 56.5% | Decomposition efficiency: ratio of each glycoside/aglycon within its isoflavone family (soymilk, substrate concentration 10%, heat treatment of enzyme no, reaction time 1 h): 31.5% | Decomposition efficiency: ratio of each glycoside/aglycon within its isoflavone family (soymilk, substrate concentration 10%, heat treatment of enzyme no, reaction time 3 h): 11.9% | Decomposition efficiency: ratio of each glycoside/aglycon within its isoflavone family (soymilk, substrate concentration 10%, heat treatment of enzyme no, reaction time 6 h): 4.8% | Decomposition efficiency: ratio of each glycoside/aglycon within its isoflavone family (soymilk, substrate concentration 10%, heat treatment of enzyme yes, reaction time 6 h): 51.2% | Decomposition efficiency: ratio of each glycoside/aglycon within its isoflavone family (soymilk, substrate concentration 20%, heat treatment of enzyme no, reaction time 0 h): 56.3% | Decomposition efficiency: ratio of each glycoside/aglycon within its isoflavone family (soymilk, substrate concentration 20%, heat treatment of enzyme no, reaction time 1 h): 37.6% | Decomposition efficiency: ratio of each glycoside/aglycon within its isoflavone family (soymilk, substrate concentration 20%, heat treatment of enzyme no, reaction time 3 h): 15.7% | Decomposition efficiency: ratio of each glycoside/aglycon within its isoflavone family (soymilk, substrate concentration 20%, heat treatment of enzyme no, reaction time 6 h): 10.7% | Decomposition efficiency: ratio of each glycoside/aglycon within its isoflavone family (soymilk, substrate concentration 20%, heat treatment of enzyme yes, reaction time 6 h): 51.0% | Decomposition efficiency: ratio of each glycoside/aglycon within its isoflavone family (soymilk, substrate concentration 30%, heat treatment of enzyme no, reaction time 0 h): 55.9% | Decomposition efficiency: ratio of each glycoside/aglycon within its isoflavone family (soymilk, substrate concentration 30%, heat treatment of enzyme no, reaction time 1 h): 42.5% | Decomposition efficiency: ratio of each glycoside/aglycon within its isoflavone family (soymilk, substrate concentration 30%, heat treatment of enzyme no, reaction time 3 h): 25.4% | Decomposition efficiency: ratio of each glycoside/aglycon within its isoflavone family (soymilk, substrate concentration 30%, heat treatment of enzyme no, reaction time 6 h): 17.1% | Decomposition efficiency: ratio of each glycoside/aglycon within its isoflavone family (soymilk, substrate concentration 30%, heat treatment of enzyme yes, reaction time 6 h): 50.0% | Decomposition efficiency of genistin family in defatted soybean (substrate concentration 2%, heat treatment of enzyme no, reaction time 0 h): 45.4 | Decomposition efficiency of genistin family in defatted soybean (substrate concentration 2%, heat treatment of enzyme no, reaction time 1 h): 31.4 | Decomposition efficiency of genistin family in defatted soybean (substrate concentration 2%, heat treatment of enzyme no, reaction time 3 h): 17.0 | Decomposition efficiency of genistin family in defatted soybean (substrate concentration 2%, heat treatment of enzyme no, reaction time 6 h): 11.4 | Decomposition efficiency of genistin family in defatted soybean (substrate concentration 2%, heat treatment of enzyme yes, reaction time 6 h): 41.8 | Decomposition efficiency of genistin family in defatted soybean (substrate concentration 5%, heat treatment of enzyme no, reaction time 0 h): 43.9 | Decomposition efficiency of genistin family in defatted soybean (substrate concentration 5%, heat treatment of enzyme no, reaction time 1 h): 38.0 | Decomposition efficiency of genistin family in defatted soybean (substrate concentration 5%, heat treatment of enzyme no, reaction time 3 h): 29.6 | Decomposition efficiency of genistin family in defatted soybean (substrate concentration 5%, heat treatment of enzyme no, reaction time 6 h): 19.0 | Decomposition efficiency of genistin family in defatted soybean (substrate concentration 5%, heat treatment of enzyme yes, reaction time 6 h): 41.1 | Decomposition efficiency of genistin family in defatted soybean (substrate concentration 10%, heat treatment of enzyme no, reaction time 0 h): 41.6 | Decomposition efficiency of genistin family in defatted soybean (substrate concentration 10%, heat treatment of enzyme no, reaction time 1 h): 41.5 | Decomposition efficiency of genistin family in defatted soybean (substrate concentration 10%, heat treatment of enzyme no, reaction time 3 h): 35.1 | Decomposition efficiency of genistin family in defatted soybean (substrate concentration 10%, heat treatment of enzyme no, reaction time 6 h): 29.1 | Decomposition efficiency of genistin family in defatted soybean (substrate concentration 10%, heat treatment of enzyme yes, reaction time 6 h): 39.4
SMILES: O=C(O)CC(=O)OC[C@H]1O[C@@H](Oc2cc(O)c3c(=O)c(-c4ccc(O)cc4)coc3c2)[C@H](O)[C@@H](O)[C@@H]1O [malonylgenistin, 6″-O-malonylgenistin]
